The test system of series [1] is Jurkat. Kind of series: Antiproliferative activity against human Jurkat cells assessed as reduction in cell viability incubated for 48 hrs by CCK8 assay. It is filed as functional, cell-based.
Series [2] concerns K562. Nature of the series: Antiproliferative activity against human K562 cells assessed as reduction in cell viability incubated for 48 hrs by CCK8 assay. The series is classed as functional, cell-based. The note with it: K562, 48 h.
For series [3], the system named is NALM-6. Kind of series: Antiproliferative activity against human NALM-6 cells assessed as reduction in cell viability incubated for 48 hrs by CCK8 assay. The series is classed as functional, cell-based. The note with it: NALM-6, 48 h.
Series [4] deals with HL-60. Kind of series: Antiproliferative activity against human HL-60 cells assessed as reduction in cell viability incubated for 48 hrs by CCK8 assay. It is filed as functional, cell-based. The conditions noted are these: HL-60, 48 h.
Series [5] concerns HUVEC. Kind of series: Cytotoxicity against human HUVEC cells assessed as reduction in cell viability up to 50 uM by CCK8 assay. The series is classed as toxicity, cell-based.
Series [6] concerns MCF-10A. Nature of the series: Cytotoxicity against human MCF-10A cells assessed as reduction in cell viability by CCK8 assay. The series is classed as toxicity, cell-based.
The test system of series [7] is HUVEC. Kind of series: Cytotoxicity against human HUVEC cells assessed as reduction in cell viability by CCK8 assay. The series is classed as toxicity, cell-based.
Series [8] relates to L02. Nature of the series: Cytotoxicity against human L02 cells assessed as reduction in cell viability by CCK8 assay. It is filed as toxicity, cell-based.
Series [9] deals with NALM-6. Kind of series: Antiproliferative activity against human NALM-6 cells assessed as reduction in cell viability incubated for 24 hrs by CCK8 assay. The series is classed as functional, cell-based.
Series [10] has as its system NALM-6. Nature of the series: Downregulation of HDAC2 expression in human NALM-6 cells incubated for 48 hrs by western blot analysis. The conditions noted are these: dose 10-30 µM, DDE = dose-dependent effect. It is filed as functional, cell-based.
For series [11], the system named is NALM-6. Kind of series: Induction of cell cycle arrest in human NALM-6 cells assessed as reduction in proportion of cells at S phase at 30 uM incubated for 48 hrs by PI/RNase staining based flow cytometry. It is filed as functional.
The subject of series [12] is NALM-6. Kind of series: Induction of apoptosis in human NALM-6 cells assessed as late apoptotic cells at 10 uM incubated for 48 hrs by AnnexinV-FITC/PI staining based flow cytometry (reference value: 0.92%). The series is classed as functional.
The target of series [13] is Histone deacetylase. Nature of the series: Inhibition of HDAC in human NALM-6 nuclear extract incubated for 48 hrs by fluorometric analysis. The series is classed as subcellular, Nucleus.
Series [14] has as its system NALM-6. Kind of series: Induction of apoptosis in human NALM-6 cells assessed as early apoptotic cells at 30 uM incubated for 48 hrs by AnnexinV-FITC/PI staining based flow cytometry (reference value: 1.09%). The series is classed as functional.
The test system of series [15] is NALM-6. Nature of the series: Induction of apoptosis in human NALM-6 cells assessed as viable cells at 10 uM incubated for 48 hrs by AnnexinV-FITC/PI staining based flow cytometry (reference value: 97.98%). The series is classed as functional. The note with it: read-out: Activity.
Series [16] deals with NALM-6. Nature of the series: Induction of apoptosis in human NALM-6 cells assessed as necrotic cells at 30 uM incubated for 48 hrs by AnnexinV-FITC/PI staining based flow cytometry (reference value: 0.01%). The series is classed as functional.
The subject of series [17] is NALM-6. Nature of the series: Potency index, ratio of celecoxib IC50 to test compound IC50 for antiproliferative activity against human NALM-6 cells assessed as reduction in cell viability incubated for 48 hrs by CCK8 assay. The series is classed as functional.
Series [18] relates to NALM-6. Kind of series: Induction of apoptosis in human NALM-6 cells assessed as viable cells at 30 uM incubated for 48 hrs by AnnexinV-FITC/PI staining based flow cytometry (reference value: 97.98%). The conditions noted are these: read-out: Activity. The series is classed as functional.
Series [19] relates to NALM-6. Kind of series: Induction of apoptosis in human NALM-6 cells assessed as necrotic cells at 10 uM incubated for 48 hrs by AnnexinV-FITC/PI staining based flow cytometry (reference value: 0.01%). It is filed as functional.
Series [20] concerns NALM-6. Kind of series: Induction of apoptosis in human NALM-6 cells assessed as early apoptotic cells at 10 uM incubated for 48 hrs by AnnexinV-FITC/PI staining based flow cytometry (reference value: 1.09%). It is filed as functional.
In series [21] the test system is NALM-6. Kind of series: Induction of apoptosis in human NALM-6 cells assessed as late apoptotic cells at 30 uM incubated for 48 hrs by AnnexinV-FITC/PI staining based flow cytometry (reference value: 0.92%). It is filed as functional.
Series [22] deals with NALM-6. Nature of the series: Induction of cell cycle arrest in human NALM-6 cells assessed as accumulation of cells at G2 phase at 30 uM incubated for 48 hrs by PI/RNase staining based flow cytometry. The series is classed as functional.
Series [23] concerns NALM-6. Nature of the series: Induction of apoptosis in human NALM-6 cells assessed as increase in cleaved PARP expression at 10 to 30 uM incubated for 48 hrs by western blot analysis. It is filed as functional, cell-based. The conditions noted are these: dose 10-30 µM.

Molecules are shown by their SMILES. Calls of active or inactive are those of the source. No cut-off for these calls is given here. Where only a bound is given, the exact number is not on record here.

In the case of `Cc1ccc(-c2cc(C(F)(F)F)nn2-c2ccc(S(=O)(=O)NC(=O)CCC[Se]C#N)cc2)cc1`, the IC50 in [1], in [2], in series [3] and in series [4] was above 100 µM in each case.

In the case of `Cc1ccc(-c2cc(C(F)(F)F)nn2-c2ccc(S(=O)(=O)NC(=O)CC[Se]C#N)cc2)cc1`, the IC50 in series [1] was above 100 µM; in [2], above 100 µM; in [3], above 100 µM; in series [4], 62.5 µM.

Regarding `Cc1ccc(-c2cc(C(F)(F)F)nn2-c2ccc(S(N)(=O)=O)cc2)cc1` [CELECOXIB], in series [5], the Activity entry is given as “Non-Toxic”. In addition, the IC50 in [1] came to 32.1 µM; in [2], 57.8 µM; in series [3], 28.6 µM; in series [4] it was 44.7 µM.

As to `O=C(CCCCCCC(=O)Nc1ccccc1)NO` [VORINOSTAT], the Activity result in [6], in series [7] and in [8] was “Toxic” in each case.

For `Cc1ccc(-c2cc(C(F)(F)F)nn2-c2ccc(S(=O)(=O)NC(=O)CCCC[Se]C#N)cc2)cc1`, the IC50 in series [1] was above 100 µM; in series [2] it was above 100 µM; in [3], above 100 µM; in series [4] it was 59.8 µM.

As to `Cc1ccc(-c2cc(C(F)(F)F)nn2-c2ccc(S(=O)(=O)NC(=O)C[Se]C#N)cc2)cc1`, the IC50 in series [1] stood at 33.3 µM; in series [2], 44.1 µM; in series [3] it was 34.9 µM; in series [4], 30 µM.

As to `Cc1ccc(-c2cc(C(F)(F)F)nn2-c2ccc(S(=O)(=O)NC(=O)CCCCC[Se]C#N)cc2)cc1`, the 50% inhibitory concentration (IC50) in series [1] is 12.6 µM; in series [2], 11.7 µM; in series [3], 9.95 µM; in [13], 11.75 µM; in series [4], 26.8 µM. Besides, the outcome in series [9], in [11], in series [22] and in series [23] was Active. In addition, in series [10], the inhibition entry is “Dde”. In addition, the Activity entry in [6] is “Non-Toxic”; in [12] it was 0.72%; in series [14] it was 9.51%; in series [16] it was 0.49%; in series [7] it was “Non-Toxic”; in series [8] it was “Non-Toxic”. Besides, the Activity in [19] amounted to 0.09%; in series [20], 1.53%; in [21], 4.17%. For the same compound, in [15], the viability at 10 µM stood at 97.7%. In addition, the “Ratio IC50” value in series [17] was 2.8. The viability at 30 µM in series [18] is 85.8%.

Values taken from ChEMBL document CHEMBL5150047, “Novel bioactive hybrid Celecoxib-HDAC Inhibitor, induces apoptosis in human acute lymphoblastic leukemia cells” (Bioorg Med Chem, 2022).
